# In patent US4436751A, “Nitrobenzyl monates antibacterial compounds” (Beecham Group Limited, priority 1980, dated 1984):
# Like-named read-outs stand apart in the source and are kept apart here.
# How the values were obtained:
# Type in all cases: cell-based
# [1] = tested on: M. hyosynoviae ATOC 25591; experiment: Anti-mycoplasmal MIC in vitro, Friis broth agarose (Table 1); settings: 144 h
# [2] = tested on: M. bovigenitalium ATOC 14173; experiment: as above; settings: 144 h
# [3] = tested on: Neisseria catarrhalis 1502; experiment: Human bacteria MIC, nutrient agar with chocolated horse blood (Table 3)
# Protocol: (§1) The values were determined by serial dilutions in nutrient agar with 5% chocolated horse blood after incubations for 18 hours at 37° C.
# [4] = tested on: Strep. pneumoniae CN33; experiment: as above; settings: Streptococcus pneumoniae
# Protocol: as §1
# [5] = tested on: Strep. 2733-B; experiment: as above
# Protocol: as §1
# [6] = tested on: Strep. 641848-C; experiment: as above
# Protocol: as §1
# [7] = tested on: M. suipneumoniae MS 16; experiment: Anti-mycoplasmal MIC in vitro, Friis broth agarose (Table 1); settings: Mesomycoplasma hyopneumoniae, MS16, 144 h
# [8] = tested on: S. typhimurium S18; experiment: Veterinary bacteria MIC, Diagnostic Sensitivity Test Agar (Table 2); settings: Salmonella enterica
# Protocol: (§2) The values were determined using a two fold serial dilutions in Diagnostic Sensitivity Test Agar with an inoculum of 10^4 organisms and incubation for 18 hours at 37° C.
# [9] = tested on: Corynebacterium pyogenes CY1; experiment: as above; settings: Trueperella pyogenes
# Protocol: as §2
# [10] = tested on: Staph. aureus 152; experiment: as above
# Protocol: as §2
# [11] = tested on: Staph. aureus Oxford; experiment: as above; settings: Staphylococcus aureus
# Protocol: as §2
# [12] = tested on: Staph. aureus B4; experiment: as above; settings: Staphylococcus aureus
# Protocol: as §2
# [13] = tested on: Past. multocida PA1; experiment: as above; settings: Pasteurella multocida
# Protocol: as §2
# [14] = tested on: Past. haemolytica PA5; experiment: as above; settings: Mannheimia haemolytica
# Protocol: as §2
# [15] = tested on: Strep. uberis SPO1; experiment: as above; settings: Streptococcus uberis
# Protocol: as §2
# [16] = tested on: E. Coli NCTC 10418; experiment: as above; settings: Escherichia coli
# Protocol: as §2
# [17] = tested on: Bord. bronchiseptica BO8; experiment: as above; settings: Bordetella bronchiseptica
# Protocol: as §2
# [18] = tested on: S. dublin S7; experiment: as above; settings: Salmonella enterica
# Protocol: as §2
# [19] = tested on: Bord. bronchiseptica BO9; experiment: as above; settings: Bordetella bronchiseptica
# Protocol: as §2
# [20] = tested on: E. Coli E1; experiment: as above; settings: Escherichia coli
# Protocol: as §2
# [21] = tested on: Past. multocida PA2; experiment: as above; settings: Pasteurella multocida
# Protocol: as §2
# [22] = tested on: Strep. dylgalactiae SPD1; experiment: as above
# Protocol: as §2
# [23] = tested on: Strep. agalactiae SPA1; experiment: as above; settings: Streptococcus agalactiae
# Protocol: as §2
# [24] = tested on: Erysipelothrix rhusiopathiae NCTC 8163; experiment: as above
# Protocol: as §2
# [25] = tested on: M. suipneumoniae NB12; experiment: Anti-mycoplasmal MIC in vitro, Friis broth agarose (Table 1); settings: Mesomycoplasma hyopneumoniae, NB12, 144 h
# [26] = tested on: M. hyorhinis ATCC 23234; experiment: as above; settings: Mesomycoplasma hyorhinis, ATCC23234, 144 h
# [27] = tested on: M. gallisepticum S6; experiment: as above; settings: Mycoplasmoides gallisepticum
compound,measurement,setting,value
"C/C(=C\C(=O)OC(C)c1ccc([N+](=O)[O-])cc1)CC1OCC(CC2OC2C(C)C(C)O)C(O)C1O (stereo not drawn) [Example 4, 1-(p-nitrophenyl)ethyl monate A]",MIC,"[1]; M. hyosynoviae ATOC 25591, in vitro, 6 days 37° C., read-out: MIC",0.1 µg/mL
same,MIC,[2],0.05 µg/mL
same,MIC,"[3]; Neisseria catarrhalis 1502, nutrient agar 5% chocolated horse blood, 18 hours 37° C., read-out: MIC",0.5 µg/mL
same,MIC,"[4]; Strep. pneumoniae CN33, nutrient agar 5% chocolated horse blood, 18 hours 37° C., read-out: MIC",1 µg/mL
same,MIC,"[5]; Strep. 2733-B, nutrient agar 5% chocolated horse blood, 18 hours 37° C., read-out: MIC",1 µg/mL
same,MIC,"[6]; Strep. 641848-C, nutrient agar 5% chocolated horse blood, 18 hours 37° C., read-out: MIC",1 µg/mL
same,MIC,[7],1 µg/mL
same,MIC,"[8]; S. typhimurium S18, DST Agar, 10^4 organisms, 18 hours 37° C., read-out: MIC",> 80 µg/mL
same,MIC,"[9]; Corynebacterium pyogenes CY1, DST Agar, 10^4 organisms, 18 hours 37° C., read-out: MIC",> 80 µg/mL
same,MIC,"[10]; Staphylococcus aureus, Staph. aureus 152, DST Agar, 10^4 organisms, 18 hours 37° C., read-out: MIC",1.25 µg/mL
same,MIC,"[11]; Staph. aureus Oxford, DST Agar, 10^4 organisms, 18 hours 37° C., read-out: MIC",1.25 µg/mL
same,MIC,"[12]; Staph. aureus B4, DST Agar, 10^4 organisms, 18 hours 37° C., read-out: MIC",2.5 µg/mL
same,MIC,"[13]; Past. multocida PA1, DST Agar, 10^4 organisms, 18 hours 37° C., read-out: MIC",5 µg/mL
same,MIC,"[14]; Past. haemolytica PA5, DST Agar, 10^4 organisms, 18 hours 37° C., read-out: MIC",20 µg/mL
same,MIC,"[15]; Strep. uberis SPO1, DST Agar, 10^4 organisms, 18 hours 37° C., read-out: MIC",0.312 µg/mL
same,MIC,"[16]; NCTC10418, E. Coli NCTC 10418, DST Agar, 10^4 organisms, 18 hours 37° C., read-out: MIC",> 80 µg/mL
same,MIC,"[17]; Bord. bronchiseptica BO8, DST Agar, 10^4 organisms, 18 hours 37° C., read-out: MIC",> 80 µg/mL
same,MIC,"[18]; S. dublin S7, DST Agar, 10^4 organisms, 18 hours 37° C., read-out: MIC",> 80 µg/mL
same,MIC,"[19]; Bord. bronchiseptica BO9, DST Agar, 10^4 organisms, 18 hours 37° C., read-out: MIC",5 µg/mL
same,MIC,"[20]; E. Coli E1, DST Agar, 10^4 organisms, 18 hours 37° C., read-out: MIC",> 80 µg/mL
same,MIC,"[21]; Past. multocida PA2, DST Agar, 10^4 organisms, 18 hours 37° C., read-out: MIC",2.5 µg/mL
same,MIC,"[22]; Strep. dylgalactiae SPD1, DST Agar, 10^4 organisms, 18 hours 37° C., read-out: MIC",0.625 µg/mL
same,MIC,"[23]; Strep. agalactiae SPA1, DST Agar, 10^4 organisms, 18 hours 37° C., read-out: MIC",2.5 µg/mL
same,MIC,"[24]; NCTC8163, Erysipelothrix rhusiopathiae NCTC 8163, DST Agar, 10^4 organisms, 18 hours 37° C., read-out: MIC",40 µg/mL
same,MIC,[25],1 µg/mL
same,MIC,[26],0.5 µg/mL
same,MIC,"[27]; 144 h, M. gallisepticum S6, in vitro, 6 days 37° C., read-out: MIC",> 10 µg/mL
"C/C(=C\C(=O)OCc1ccc([N+](=O)[O-])cc1[N+](=O)[O-])CC1OCC(CC2OC2C(C)C(C)O)C(O)C1O (stereo not drawn) [Example 10, 2,4-dinitrobenzyl monate A]",MIC,[1],0.25 µg/mL
same,MIC,[2],0.025 µg/mL
same,MIC,"[3]; Neisseria, 1502, 18 h",0.05 µg/mL
same,MIC,"[4]; CN33, 18 h",2.5 µg/mL
same,MIC,[5]; 18 h,2.5 µg/mL
same,MIC,[6]; 18 h,2.5 µg/mL
same,MIC,[7],0.5 µg/mL
same,MIC,"[8]; TYPHIMURIUM, 18 h",> 80 µg/mL
same,MIC,"[9]; CY1, 18 h",> 80 µg/mL
same,MIC,"[10]; Staphylococcus aureus, 152, 18 h",0.625 µg/mL
same,MIC,[11]; 18 h,0.625 µg/mL
same,MIC,"[12]; B4, 18 h",0.625 µg/mL
same,MIC,"[13]; PA1, 18 h",2.5 µg/mL
same,MIC,"[14]; PA5, 18 h",2.5 µg/mL
same,MIC,"[15]; SPO1, 18 h",0.312 µg/mL
same,MIC,"[16]; NCTC10418, 18 h",> 80 µg/mL
same,MIC,"[17]; BO8, 18 h",40 µg/mL
same,MIC,"[18]; S7, 18 h",> 80 µg/mL
same,MIC,"[19]; BO9, 18 h",5 µg/mL
same,MIC,[20]; 18 h,> 80 µg/mL
same,MIC,"[21]; PA2, 18 h",0.625 µg/mL
same,MIC,[22]; 18 h,0.312 µg/mL
same,MIC,"[23]; SPA1, 18 h",1.25 µg/mL
same,MIC,"[24]; Erysipelothrix rhusiopathiae, NCTC8163, 18 h",20 µg/mL
same,MIC,[25],1 µg/mL
same,MIC,[26],0.5 µg/mL
same,MIC,"[27]; S6, 144 h",5 µg/mL
